# Data reported in patent EP4635500A1, “THERAPEUTIC AGENT FOR BACTERIAL INFECTION” (Sumitomo Pharma Co., Ltd., priority 2022, dated 2024).
# Read-outs that look alike come from different tables or passages of the source.
# System: Enterobacterales
# Assay: MIC, broth microdilution, CDC/FDA Antibiotic Resistance Isolate Bank (Example 7, Tables 8, 11, 12)
# Format: cell-based
# Details: for MIC: read-out: MIC
smiles,measurement,setting,value
"CO/N=C(\C(=O)N[C@@H]1C(=O)N2C(C(=O)[O-])=C(C[n+]3ccn4ncccc43)CS[C@H]12)c1nsc(N)n1 [Cefozopran, cefozopran]",MIC,"Klebsiella pneumoniae, KUB No. 5636, AR Bank # 139",64 µg/mL
same,MIC,"Klebsiella pneumoniae, KUB No. 5637, AR Bank # 140",> 64 µg/mL
same,MIC,"Klebsiella pneumoniae, KUB No. 5638, AR Bank # 141",> 64 µg/mL
same,MIC,"Klebsiella pneumoniae, KUB No. 5639, AR Bank # 142",> 64 µg/mL
same,MIC,"Klebsiella pneumoniae, KUB No. 5640, AR Bank # 143",> 64 µg/mL
same,MIC,"Klebsiella pneumoniae, KUB No. 5642, AR Bank # 145",64 µg/mL
same,MIC,"Klebsiella pneumoniae, KUB No. 5643, AR Bank # 146",> 64 µg/mL
same,MIC,"Klebsiella pneumoniae, KUB No. 5645, AR Bank # 148",64 µg/mL
same,MIC,"Klebsiella pneumoniae, KUB No. 5649, AR Bank # 152",> 64 µg/mL
same,MIC,"Klebsiella pneumoniae, KUB No. 5650, AR Bank # 153",> 64 µg/mL
same,MIC,"Klebsiella pneumoniae, KUB No. 5655, AR Bank # 158",> 64 µg/mL
same,MIC,"Klebsiella pneumoniae, KUB No. 5657, AR Bank # 160",2 µg/mL
same,MIC,"Klebsiella pneumoniae, KUB No. 5757, AR Bank # 361",16 µg/mL
same,MIC,"Klebsiella pneumoniae, KUB No. 5759, AR Bank # 363",16 µg/mL
same,MIC,"Klebsiella pneumoniae, KUB No. 5760, AR Bank # 364",4 µg/mL
same,MIC,"Klebsiella pneumoniae, KUB No. 5772, AR Bank # 376",> 64 µg/mL
same,MIC,"Klebsiella pneumoniae, Klebsiella pneumoniae KUB No. 5784, AR Bank #438",> 64 µg/mL
same,MIC,"Klebsiella pneumoniae, Klebsiella pneumoniae KUB No. 5797, AR Bank #453",> 64 µg/mL
same,MIC,"Klebsiella pneumoniae, Klebsiella pneumoniae KUB No. 5809, AR Bank #504",> 64 µg/mL
same,MIC,"Klebsiella pneumoniae, Klebsiella pneumoniae KUB No. 5810, AR Bank #505",> 64 µg/mL
same,MIC,"Klebsiella pneumoniae, Klebsiella pneumoniae KUB No. 5811, AR Bank #506",> 64 µg/mL
same,MIC,"Klebsiella pneumoniae, Klebsiella pneumoniae KUB No. 5812, AR Bank #507",> 64 µg/mL
same,MIC,"Klebsiella pneumoniae, Klebsiella pneumoniae KUB No. 5827, AR Bank #522",> 64 µg/mL
same,MIC,"Klebsiella pneumoniae, Klebsiella pneumoniae KUB No. 5828, AR Bank #523",32 µg/mL
same,MIC,"Klebsiella pneumoniae, Klebsiella pneumoniae KUB No. 5829, AR Bank #524",32 µg/mL
same,MIC,"Klebsiella pneumoniae, Klebsiella pneumoniae KUB No. 5830, AR Bank #525",32 µg/mL
same,MIC,"Kluyvera ascorbata, KUB No. 5641, AR Bank # 144",16 µg/mL
same,MIC,"Morganella morganii, KUB No. 5554, AR Bank# 57",> 64 µg/mL
same,MIC,"Morganella morganii, KUB No. 5630, AR Bank # 133",64 µg/mL
same,MIC,"Proteus mirabilis, KUB No. 5556, AR Bank# 59",2 µg/mL
same,MIC,"Proteus mirabilis, KUB No. 5652, AR Bank # 155",64 µg/mL
same,MIC,"Proteus mirabilis, KUB No. 5653, AR Bank # 156",0.5 µg/mL
same,MIC,"Proteus mirabilis, KUB No. 5656, AR Bank # 159",> 64 µg/mL
same,MIC,"Proteus mirabilis, KUB No. 5773, AR Bank # 377",16 µg/mL
same,MIC,"Proteus mirabilis, KUB No. 5775, AR Bank # 379",4 µg/mL
same,MIC,"Providencia rettgeri, KUB No. 5579, AR Bank # 82",16 µg/mL
same,MIC,"Raoultella ornithinolvtica, KUB No. 5631, AR Bank # 134",8 µg/mL
same,MIC,"Salmonella enterica, Salmonella Senftenberg, KUB No. 5624, AR Bank # 127",> 64 µg/mL
same,MIC,"Serratia marcescens, KUB No. 5588, AR Bank # 91",0.12 µg/mL
same,MIC,"Serratia marcescens, KUB No. 5596, AR Bank # 99",0.25 µg/mL
same,MIC,"Serratia marcescens, KUB No. 5618, AR Bank # 121",0.12 µg/mL
same,MIC,"Serratia marcescens, KUB No. 5619, AR Bank # 122",0.12 µg/mL
same,MIC,"Serratia marcescens, KUB No. 5620, AR Bank # 123",0.12 µg/mL
same,MIC,"Serratia marcescens, KUB No. 5621, AR Bank # 124",0.12 µg/mL
same,MIC,"Serratia marcescens, KUB No. 5627, AR Bank # 130",0.12 µg/mL
same,MIC,"Serratia marcescens, KUB No. 5628, AR Bank # 131",0.12 µg/mL
same,MIC,"Serratia marcescens, Serratia marcescens KUB No. 5822, AR Bank #517",> 64 µg/mL
same,MIC,"Serratia marcescens, Serratia marcescens KUB No. 5825, AR Bank #520",0.25 µg/mL
same,MIC,"Serratia marcescens, Serratia marcescens KUB No. 5826, AR Bank #521",8 µg/mL
same,MIC50,"carbapenemase-producing Enterobacterales, Metallo-β-lactamase (N = 47), read-out: MIC50",> 64 µg/mL
same,MIC90,"carbapenemase-producing Enterobacterales, Metallo-β-lactamase (N = 47), read-out: MIC90",> 64 µg/mL
